Each molecule was assayed on 3T3-L1 cells (assay: Glucose uptake assay using 3T3-L1 cells). Conditions: differentiated 3T3-L1 adipocytes, 1 μM, 72 hours, 14C deoxyglucose uptake for 10 minutes; with reference to stimulation index of BLX-1002.
Assay type: cell-based
Description: 3T3-L1 cells were differentiated by the addition of differentiation cocktail (72 μg/ml insulin, 0.5 mM IBMX, 400 ng/ml Dexamethasone) for 4 days and later fed with media without differentiation cocktail for 7-8 days. After differentiation the cells were incubated with the either the reference compound BLX-1002 or compounds listed in the table 1 at 1 μM concentrations for 72 hours and carried out the glucose uptake assay for 10 minutes by the addition of KRP buffer supplemented with 2.5 μCi/ml ^14C deoxy glucose. Stimulation Index is defined as the amount of ^14C Deoxyglucose uptake induced by 1 μM of BLX-1002 incubated for 72 hours in an assay condition as per protocol described above with differentiated 3T3-L1 adipocytes. Values of compounds mentioned in table-1 are with reference to stimulation index of reference compound BLX-1002.

| SMILES | Stimulation Index |
| --- | --- |
| CN1C(=O)OC[C@@H]1Cc1ccc(Oc2ccc(Nc3ccccn3)cc2)cc1 [Example 1, 3-methyl-4-{4-[4-(pyridin-2-ylamino)phenoxy]benzyl}-1,3-oxazolidin-2-one] | 0.827 |
| CN1C(=O)OC[C@@H]1Cc1ccc(Oc2ccc(Nc3ccc([N+](=O)[O-])cn3)cc2)cc1 [Example 2, (4S)4-(4-{4-[(5-nitropyridin-2-yl)amino]phenoxy}benzyl)-3-methyl-1,3-oxazolidin-2-one] | 0.935 |
| CCN1C(=O)OC[C@@H]1Cc1ccc(Oc2ccc(Nc3ccccn3)cc2F)cc1 [Example 8, (4S)-4-[4-(2-fluoro-4-{[5-pyridin-2-yl]amino}phenoxy)benzyl]-3-ethyl-1,3-oxazolidin-2-one] | 1.049 |
| CCN1C(=O)OC[C@@H]1Cc1ccc(Oc2ccc(Nc3ncccc3[N+](=O)[O-])cc2F)cc1 [Example 12, (4S)-4-[4-(2-fluoro-4-{[3-nitropyridin-2-yl]amino}phenoxy)benzyl]-3-ethyl-1,3-oxazolidin-2-one] | 0.935 |
| CCN1C(=O)OC[C@@H]1Cc1ccc(Oc2ccc(Nc3ncccc3C#N)cc2F)cc1 [Example 13, 2-{[3-fluoro-4-(4-{[(4S)-3-ethyl-2-oxo-1,3-oxazolidin-4-yl]methyl}phenoxy)phenyl]amino}nicotinonitrile] | 0.874 |
| CCN1C(=O)OC[C@@H]1Cc1ccc(Oc2ccc(Nc3ncccc3C#N)cc2)cc1 [Example 14, 2-[(4-{4-[(3-ethyl-2-oxo-1,3-oxazolidin-4-yl)methyl]phenoxy}phenyl)amino]nicotinonitrile] | 0.827 |

Each molecule was assayed on Streptozotocin induced diabetic mice (assay: Antidiabetic activity in Streptozotocin induced diabetic mice). Conditions: plasma, 50 mg/kg oral for 7 days, fasted 6 hours, compared to control group.
Assay type: in vivo
Description: Male Swiss albino mice were used in the study at the age of 10 weeks. Diabetes was induced in animals by injecting Streptozotocin by i.p. route at a dose of 200-mg/kg-body weight. 48 hours after Streptozotocin administration, the animals were kept for fasting for 6 hours and blood was collected and plasma separated and glucose was estimated. Animals showing greater than 200 mg/dl glucose levels were considered as diabetic and these animals were randomly distributed into various groups. The compounds listed in the table 2 were administered at a dose of 50-mg/kg body weight by oral route for 7 days. Later animals were fasted for 6 hours and blood was collected and plasma separated. Biochemical estimations like glucose, cholesterol and triglycerides were carried out using the plasma. The effect of compounds mentioned in the table was expressed in terms of percentage reduction in biochemical values as compared to control group.

| SMILES | % Reduction Triglyceride [%] | % Reduction Cholesterol [%] | % Reduction Glucose [%] |
| --- | --- | --- | --- |
| CN1C(=O)OC[C@@H]1Cc1ccc(Oc2ccc(Nc3ncccc3C#N)cc2F)cc1 [Example 22, 2-{[3-fluoro-4-(4-{[(4S)-3-methyl-2-oxo-1,3-oxazolidin-4-yl]methyl}phenoxy)phenyl]amino}nicotinonitrile] | 5.2 | – | – |
| CCN(c1ccc(Oc2ccc(C[C@H]3COC(=O)N3CC)cc2)cc1)c1ncccc1C#N [Example 24, (4S)-2-[ethyl(4-{4-[(3-ethyl-2-oxo-1,3-oxazolidin-4-yl)methyl]phenoxy}phenyl)amino]nicotinonitrile] | 13.7 | 15.9 | – |
| CN(c1ccc(Oc2ccc(C[C@H]3COC(=O)N3C)cc2)cc1)c1ncccc1C#N [Example 45, (4S)-2-[methyl(4-{4-[(3-methyl-2-oxo-1,3-oxazolidin-4-yl)methyl]phenoxy}phenyl)amino]nicotinonitrile] | 53.8 | 10 | 39 |
